For assay [1], the system named is human colon carcinoma cell line HT29. Put plainly: Survival study in HT29 colon cancer xenograft mouse model. The following applies: Paclitaxel 40 mg/kg, IP on day 4 post tumor cell implantation. It counts as in vivo, SCID mice. On the procedure:
PACLIMER was provided as in powder and suspended in the vehicle (0.1% Tween80 in normal saline) just before administration. Paclitaxel was purchased from Bristol-Myers Squib Co., which was provided as a solution at a concentration of 6 mg/ml. The paclitaxel solution was diluted to 1 mg/ml with 0.9% sodium chloride just before use.
The human colon carcinoma cell line HT29 was used to set up the colon cancer xenograft mouse model. SCID mice were injected i.p. with 10 million cells. This generally results in death from the tumor metastasis and ascites around 30 days after tumor implantation. HT29 cells growing as a monolayer were harvested with trypsin and washed with PBS. The packed cells were resuspended in PBS (10 million cells per ml PBS). 48 SCID mice (C.B.17/Icr SCID, 8-10 weeks of age) were injected i.p. with 1 ml of the HT29 cell suspension (10 million cells for each mouse). 4 days after tumor implantation, the animals were grouped randomly. […]
For the ascites study, PACLIMER was to be given when obvious ascites was found in the mice. […] On 1, 5, and 10 days after treatment, 4 mice in each group was sacrificed at each time point and the ascites volumes were measured. […]

The test system of assay [2] is malignant effusions associated with non-small cell lung cancer. The following applies: cited from earlier work.
Setting [3] is: single 125 mg/m2 dose diluted in saline, intracavitary.

As to `CC(=O)O[C@H]1C(=O)[C@@]2(C)[C@H]([C@H](OC(=O)c3ccccc3)[C@]3(O)C[C@H](OC(=O)[C@H](O)[C@@H](NC(=O)c4ccccc4)c4ccccc4)C(C)=C1C3(C)C)[C@]1(OC(C)=O)CO[C@@H]1C[C@@H]2O` [Paclitaxel, paclitaxel], the “Median Survival” value in assay [1] is 44 days. Besides, in assay [2] (setting [3]), the complete response rate is 28.6% and the total response rate is 92.9%. Besides, the “patients with total tumor mass reduced by more than 50%” value in assay [2] (single 125 mg/m2 dose, following the treatment) is “one patient out of fourteen”.

The values above are taken from US20020141966A1, “Compositions for treatment of malignant effusions, and methods of making and using the same” (priority 2000, published 2002).
